Measured values: patent US4798827A, “Synergistin derivatives and pharmaceutical compositions which contain them” (Rhone-Poulenc Sante, priority 1986, dated 1989)
Numbered stars: 1 amine (or outer) side, 2 acyl side, 3 side chain; on linkers, the order of the positions; unused ones are H or OH. Bridge positions count the residues as written; N and C are the ends. Square brackets hold non-standard residues; d marks the D form. Peptide text beside a SMILES is read from it. * marks the point of attachment. X1 = O=C1C[C@@H](C(=O)[*:2])N([*:1])C[C@H]1CS[C@@H]1CN2CCC1CC2; NMePhe(4-NMe2) = CN[C@@H](Cc1ccc(N(C)C)cc1)C(=O)O; Picolinoyl(3-OH) = O=C(c1ncccc1O)*; Phg = N[C@H](C(=O)O)c1ccccc1; dAbu = CC[C@@H](N)C(=O)O

Experiment: solubility in water (as salts / hydrochlorides)
Conditions: product with 0.1N hydrochloric acid and distilled water

CC[C@H]1NC(=O)[C@@H](NC(=O)c2ncccc2O)[C@@H](C)OC(=O)[C@H](c2ccccc2)NC(=O)[C@@H]2CC(=O)[C@H](CS[C@@H]3CN4CCC3CC4)CN2C(=O)[C@H](Cc2ccc(N(C)C)cc2)N(C)C(=O)[C@@H]2CCCN2C1=O [Example 1, 5δ-[(3-Quinuclidinyl)thiomethyl]pristinamycin IA] ({Picolinoyl(3-OH)}-T[dAbu]P[NMePhe(4-NMe2)][X1][Phg]; ester 1-C)
strength of aqueous solution obtained: 5%
